Reference: ChEMBL document CHEMBL1201862, “PubChem BioAssay data set” (2004)
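The compound was tested at five concentrations on cells cultured in 96-well plates, with a 48-hour exposure period. GI50 is the concentration that inhibits growth by half.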 Activity calls are given as the source filed them. No stated cut-off is given here; in the data, active = GI50 up to about 1.1 µM and inactive = higher.

Experiments:
Experiment in all cases: inhibition of tumour cell growth, NCI panel, 48 h
MDA-N = test system: MDA-N
MCF7 = test system: MCF7
BT-549 = test system: BT-549
KM-20L2 = test system: KM-20L2
DMS-273 = test system: DMS-273
DMS-114 = test system: DMS-114
LXFL 529 = test system: LXFL 529
DLD-1 = test system: DLD-1

SMILES	GI50 (MDA-N)	GI50 (MCF7)	GI50 (BT-549)	GI50 (KM-20L2)	GI50 (DMS-273)	GI50 (DMS-114)	GI50 (LXFL 529)	GI50 (DLD-1)
O=[N+]([O-])c1ccc2[nH]c(-c3ccc(Cl)cc3)nc2c1	24 µM (inactive)	18.7 µM (inactive)	29.7 µM (inactive)	–	–	–	–	–
O=C(O)c1ccccc1C1c2ccccc2Oc2ccccc21	58.6 µM (inactive)	–	72.3 µM (inactive)	–	–	–	–	–
COC(=O)c1cc2c(n1S(=O)(=O)c1ccc(C)cc1)C(=O)C(=O)c1[nH]cc(C(=O)OCc3ccccc3)c1-2	< 0.01 µM (active)	0.0668 µM (active)	0.183 µM (active)	–	–	–	–	–
CN(C)CCCNc1ncnc2[nH]cnc12	> 100 µM (inactive)	> 100 µM (inactive)	> 100 µM (inactive)	–	–	–	–	–
Sc1ncc2[nH]nnc2n1	–	> 100 µM (inactive)	> 100 µM (inactive)	–	–	–	–	–
CCCCCCNCCCNc1c2ccccc2nc2cccc([N+](=O)[O-])c12	0.0118 µM (active)	0.00376 µM (active)	0.11 µM (active)	–	–	–	–	–
Cn1c(-c2cccs2)cc(-c2ccccc2)c1-c1cccs1	> 100 µM (inactive)	3.58 µM (inactive)	> 100 µM (inactive)	–	–	–	–	–
NNc1nnc(-c2nnc(NN)o2)o1	> 10 µM (inactive)	> 10 µM (inactive)	> 10 µM (inactive)	–	–	–	–	–
COc1nc2c(OC)cccc2c(OC)c1C=O	–	–	–	> 100 µM (inactive)	> 100 µM (inactive)	> 100 µM (inactive)	–	–
CC(C)(C)CC(C)(C)c1cc2c(O)c(c1)Cc1cc(C(C)(C)CC(C)(C)C)cc(c1O)Cc1cc(C(C)(C)CC(C)(C)C)cc(c1O)Cc1cc(C(C)(C)CC(C)(C)C)cc(c1O)Cc1cc(C(C)(C)CC(C)(C)C)cc(c1O)C2	–	–	–	> 100 µM (inactive)	> 100 µM (inactive)	> 100 µM (inactive)	> 100 µM (inactive)	> 100 µM (inactive)
CCOC(=O)NC(=S)NN(C)C1=NCC(C)(C)S1	> 100 µM (inactive)	> 100 µM (inactive)	> 100 µM (inactive)	–	–	–	–	–
CN(C)C=C1C(Cl)=C(C=O)CC(C=O)=C1Cl	–	–	–	19.5 µM (inactive)	11 µM (inactive)	11.2 µM (inactive)	2.03 µM (inactive)	5.71 µM (inactive)
CCOP(=O)(OCC)/C(C#N)=C/c1coc2cc(C)cc(C)c2c1=O	> 100 µM (inactive)	> 100 µM (inactive)	> 100 µM (inactive)	–	–	–	–	–
Cc1ccc(C)c(N2C(=O)C(=O)C(c3nc4ccccc4s3)/C(=N/N)C2=O)c1 (centres undefined)	–	–	–	> 100 µM (inactive)	> 100 µM (inactive)	> 100 µM (inactive)	> 100 µM (inactive)	> 100 µM (inactive)
CC1(C)C/C(=N/O)c2c(nc3ccc4ccccc4c3c2-c2ccc(Cl)cc2)C1	25.1 µM (inactive)	11.2 µM (inactive)	10.6 µM (inactive)	–	–	–	–	–
O=C(O)Cc1ccc2c(c1O)C(=O)c1c(ccc(CC(=O)O)c1O)C2=O	–	–	–	> 100 µM (inactive)	> 100 µM (inactive)	> 100 µM (inactive)	> 100 µM (inactive)	> 100 µM (inactive)
CC(C)=CC(=O)c1[nH]c2ccccc2c1CC(=O)NCCc1c[nH]cn1	> 100 µM (inactive)	> 100 µM (inactive)	> 100 µM (inactive)	–	–	–	–	–
CC1OC(O[C@@H]2OC=C(C=O)[C@@]3(O)CC[C@H](C)[C@@H]23)C(O)C(O)C1O (some centres undefined)	> 100 µM (inactive)	> 100 µM (inactive)	> 100 µM (inactive)	–	–	–	–	–
Cc1ccccc1C(=O)N1CCc2c([nH]c3ccccc23)C1	18.9 µM (inactive)	21 µM (inactive)	18.7 µM (inactive)	–	–	–	–	–
CCN(CC)c1ccc(/N=N/c2ccc(-c3nc4cccnc4o3)cc2)cc1	–	–	–	> 100 µM (inactive)	> 100 µM (inactive)	> 100 µM (inactive)	> 100 µM (inactive)	60.3 µM (inactive)

SMILES	GI50 (MDA-N)	GI50 (MCF7)	GI50 (BT-549)	GI50 (KM-20L2)	GI50 (DMS-273)	GI50 (DMS-114)	GI50 (LXFL 529)	GI50 (DLD-1)
COC(=O)C12C3C=CC(O3)C1C1C=CC2O1 (centres undefined)	–	–	–	> 100 µM (inactive)	> 100 µM (inactive)	–	> 100 µM (inactive)	> 100 µM (inactive)
COC(=O)/C(=N/O)C(C(=O)C=C(C)C)C(=O)C(=O)Nc1nc2ccc([N+](=O)[O-])cc2s1 (centres undefined)	–	–	–	80.2 µM (inactive)	45.4 µM (inactive)	–	25.6 µM (inactive)	–
COC(=O)c1ccccc1C1CN=NC12Cc1c(ccc3c1CCC3)C2=O (centres undefined)	20.1 µM (inactive)	50.9 µM (inactive)	92.7 µM (inactive)	–	–	–	–	–
O=c1[nH]c(=O)n(C2OC(CO)C(O)C(O)C2O)cc1F (centres undefined)	> 100 µM (inactive)	> 100 µM (inactive)	> 100 µM (inactive)	> 100 µM (inactive)	–	> 100 µM (inactive)	> 100 µM (inactive)	> 100 µM (inactive)
CN1C2CCC1CC(CC(=O)NC(c1ccc(F)cc1)c1ccc(F)cc1)C2 (centres undefined)	41.9 µM (inactive)	–	> 100 µM (inactive)	–	–	–	–	–
COc1cc2cc(C(=O)N3CC(CCl)c4ccc([N+](C)(C)Cc5ccccc5[N+](=O)[O-])cc43)[nH]c2c(OC)c1OC (centres undefined)	2.26 µM (inactive)	0.621 µM (active)	1.95 µM (inactive)	–	–	–	–	–
C=C[C@@]1(O)CCCC[C@@H]1CC(Sc1ccccc1)Sc1ccccc1	20.1 µM (inactive)	16.7 µM (inactive)	–	–	–	–	–	–
COc1ccc2nc3ccc(OC)cc3c([S+]([O-])Cc3ccc([N+](=O)[O-])cc3)c2c1 (centres undefined)	14.2 µM (inactive)	1.92 µM (inactive)	18.7 µM (inactive)	–	–	–	–	–
CC1CCCC(C(O)CC2CC(=O)NC(=O)C2)C1O (centres undefined)	> 100 µM (inactive)	> 100 µM (inactive)	> 100 µM (inactive)	–	–	–	–	–
CN(C)C(=S)/N=c1\ss/c(=N\C(=S)N(C)C)n1-c1cccc(Cl)c1	–	–	–	> 100 µM (inactive)	> 100 µM (inactive)	> 100 µM (inactive)	–	–
CC1CCCN(CC(O)CN2CCCc3ccccc32)C1 (centres undefined)	> 100 µM (inactive)	> 100 µM (inactive)	> 100 µM (inactive)	–	–	–	–	–
Cn1c(=O)c2c(nc(NCCCCl)n2CC(=O)NCCCCl)n(C)c1=O	> 100 µM (inactive)	–	> 100 µM (inactive)	–	–	–	–	–
O/N=C(\CC(O)(C(F)(F)F)C(F)(F)F)c1cccs1	> 10 µM (inactive)	> 10 µM (inactive)	> 10 µM (inactive)	–	–	–	–	–
Cn1c(SCc2ccc(F)cc2)nnc1C12CC3CC(CC(C3)C1)C2	38.5 µM (inactive)	–	–	–	–	–	–	–
CC(=O)OCC1OC(n2ncc(=O)[nH]c2=O)C(OC(C)=O)C1OC(C)=O (centres undefined)	32.3 µM (inactive)	15.6 µM (inactive)	–	–	–	–	–	–
COC(=O)C1=C(C(=O)OC)C(OO)(c2ccccc2)OC1=O (centres undefined)	91.4 µM (inactive)	52.1 µM (inactive)	> 100 µM (inactive)	–	–	–	–	–
O=C1Nc2cccc3ncn(c23)C2=C1CCCC2	–	–	–	> 100 µM (inactive)	> 100 µM (inactive)	> 100 µM (inactive)	> 100 µM (inactive)	> 100 µM (inactive)
CC1CCC(O)(C(C)(C(=O)O)c2ccccc2)CC1 (centres undefined)	> 100 µM (inactive)	–	> 100 µM (inactive)	–	–	–	–	–
Cn1c(=O)n2n(c1=O)C([S+]([O-])c1ccccc1)C2 (centres undefined)	> 100 µM (inactive)	> 100 µM (inactive)	> 100 µM (inactive)	–	–	–	–	–
COc1ccc2c(c1)CCCC1C3=NCCC3(C)CSC21 (centres undefined)	–	–	–	22.8 µM (inactive)	36.6 µM (inactive)	37.8 µM (inactive)	58.5 µM (inactive)	–

SMILES	GI50 (MDA-N)	GI50 (MCF7)	GI50 (BT-549)	GI50 (KM-20L2)	GI50 (DMS-273)	GI50 (DMS-114)	GI50 (LXFL 529)	GI50 (DLD-1)
CC1OC(OC2C(O[C@H]3CC[C@@]4(C)[C@@H](CC[C@@H]5[C@@H]4CC[C@]4(C)[C@@H]6[C@H](C[C@@H]54)O[C@]4(CC[C@@H](C)CO4)[C@H]6C)C3)OC(CO)C(OC3OC(CO)C(O)C(OC4OCC(O)C(O)C4O)C3OC3OCC(O)C(O)C3O)C2O)C(O)C(O)C1O (some centres undefined)	3.73 µM (inactive)	0.342 µM (active)	1.08 µM (active)	–	–	–	–	–
CCOC(=O)c1c(N2CCCC2)[nH]c(=O)c(C(c2ccc(N(C)C)cc2)c2c(O)c(C(=O)OCC)c(N3CCCC3)[nH]c2=O)c1O	> 100 µM (inactive)	> 100 µM (inactive)	30.4 µM (inactive)	–	–	–	–	–
C=C(C)[C@@]1(O)O[C@H]2C[C@@]3(C)OC(=CC3=O)/C(C)=C\[C@@H]3OC(=O)[C@@]1(C)[C@H]32	–	11.6 µM (inactive)	8.89 µM (inactive)	–	–	–	–	–
CC(C)(C)OC(=O)NCCCCC(NC(=O)OCc1ccccc1)C(N)=O (centres undefined)	> 100 µM (inactive)	> 100 µM (inactive)	> 100 µM (inactive)	–	–	–	–	–
CCC1(Br)C(=O)NC(=O)N(C2CC(O)C(CO)O2)C1N=[N+]=[N-] (centres undefined)	–	–	–	> 100 µM (inactive)	> 100 µM (inactive)	72.1 µM (inactive)	> 100 µM (inactive)	> 100 µM (inactive)
COc1ccc(C2(O)C(S(=O)(=O)c3ccc(C)cc3)=Cc3ccc(OC)cc32)cc1 (centres undefined)	> 100 µM (inactive)	35 µM (inactive)	–	–	–	–	–	–
NC(=O)C(=CNC(=S)Nc1cccc(C(F)(F)F)c1)C(N)=O	> 100 µM (inactive)	> 100 µM (inactive)	–	–	–	–	–	–
OCC1C(OCc2ccccc2)C(OCc2ccccc2)C(OCc2ccccc2)CN1Cc1ccccc1 (centres undefined)	35.4 µM (inactive)	14.2 µM (inactive)	–	–	–	–	–	–
COc1ccc(/N=N/c2ccc3oc(=O)c(C(=O)Nc4ccc(OC)cc4)cc3c2)cc1	25.5 µM (inactive)	16.1 µM (inactive)	4.93 µM (inactive)	–	–	–	–	–
COC(=O)C(/C(=N/N)C(=O)Nc1ccc(C)c(C)c1)c1nc2ccc(Cl)cc2nc1O (centres undefined)	–	> 100 µM (inactive)	> 100 µM (inactive)	–	–	–	–	–
CC[P+]1(CC)CCCC1	–	–	–	> 100 µM (inactive)	> 100 µM (inactive)	> 100 µM (inactive)	> 100 µM (inactive)	> 100 µM (inactive)
Sc1nnc(C23CC4CC(CC(C4)C2)C3)n1-c1ccc(Cl)cc1	15.6 µM (inactive)	13.1 µM (inactive)	12.3 µM (inactive)	–	–	–	–	–
O=c1[nH]cnc2c(C3OC(CO)C(O)C3O)c[nH]c12 (centres undefined)	> 100 µM (inactive)	> 100 µM (inactive)	> 100 µM (inactive)	–	–	–	–	–
O=[N+]([O-])c1ccc2c(/N=N/c3ccc4ccccc4c3O)c(O)cc(S(=O)(=O)O)c2c1	–	30.3 µM (inactive)	25.7 µM (inactive)	–	–	–	–	–
COC1CC(O[C@H]2CC[C@@]3(C)C(=CCC4(O)C3CCC35C(=O)OC6(C)O[C@@]43CCC65)C2)OC(C)C1O (some centres undefined)	–	–	–	> 100 µM (inactive)	> 100 µM (inactive)	> 100 µM (inactive)	> 100 µM (inactive)	> 100 µM (inactive)
CCc1cccc2c3c([nH]c12)-c1ccccc1NC(=O)C3	–	18.3 µM (inactive)	> 100 µM (inactive)	–	–	–	–	–
C=CCOn1c(C=C)nc2c(C)cccc21	3.13 µM (inactive)	2.92 µM (inactive)	5.16 µM (inactive)	–	–	–	–	–
[O-][n+]1ccc(NO)c2ccccc21	4.72 µM (inactive)	0.883 µM (active)	0.689 µM (active)	–	–	–	–	–
Cc1ccc2c(O)cc(-c3ccc4ccccc4c3)nc2n1	–	2.28 µM (inactive)	27.4 µM (inactive)	–	–	–	–	–
